Laboratory results reported in patent US7300946B2, “N-(substituted arylmethyl)-4-(disubstituted methyl) piperidines and pyridines” (Bayer CropScience AG, priority 2002, dated 2007).

Tested on: tobacco budworm (Heliothis virescens [Fabricius])
Assay: surface-treated diet test against the tobacco budworm
Type: in vivo
Details: tobacco budworm second instar larvae, 0.25 millimoles of candidate insecticide on the surface of the diet, five-day exposure; for Percent Mortality: compared to total number of insects infested; for Percent Growth Inhibition: inhibition of insect weight relative to untreated controls
Summary of the method: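 Wheat germ artificial diet surface-treated with 40 µL of 50 mM DMSO stock diluted 1:7 in 1:1 water/acetone (0.25 millimolar on diet), or sub-multiples for rate tests. One second-instar larva per well, 25° C, 60% RH, 5 days; percent weight inhibition vs DMSO controls and percent mortality.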

## CC(C)N(C)C(=O)OC(c1ccc(C(F)(F)F)cc1)C1CCN(Cc2ccc(Oc3ccccn3)cc2)CC1 (stereo not shown) [Compound 778]
  Percent Mortality: 0%
  Percent Growth Inhibition: 100%

## CC(C)(C)NC(=O)OC(c1ccc(C(F)(F)F)cc1)C1CCN(Cc2ccc(Oc3ccccn3)cc2)CC1 (stereo not shown) [Compound 779]
  Percent Mortality: 100%
  Percent Growth Inhibition: 100%

## C=CCNC(=O)OC(c1ccc(C(F)(F)F)cc1)C1CCN(Cc2ccc(Oc3ccccn3)cc2)CC1 (stereo not shown) [Compound 780]
  Percent Mortality: 0%
  Percent Growth Inhibition: 98%

## O=C(NC1CCCC1)OC(c1ccc(C(F)(F)F)cc1)C1CCN(Cc2ccc(Oc3ccccn3)cc2)CC1 (stereo not shown) [Compound 781]
  Percent Mortality: 100%
  Percent Growth Inhibition: 100%

## O=C(NC1CCCCC1)OC(c1ccc(C(F)(F)F)cc1)C1CCN(Cc2ccc(Oc3ccccn3)cc2)CC1 (stereo not shown) [Compound 782]
  Percent Mortality: 100%
  Percent Growth Inhibition: 100%

## CCOC(=O)CNC(=O)OC(c1ccc(C(F)(F)F)cc1)C1CCN(Cc2ccc(Oc3ccccn3)cc2)CC1 (stereo not shown) [Compound 783]
  Percent Mortality: 0%
  Percent Growth Inhibition: 70%

## COC(=O)C(NC(=O)OC(c1ccc(C(F)(F)F)cc1)C1CCN(Cc2ccc(Oc3ccccn3)cc2)CC1)C(C)C (stereo not shown) [Compound 784]
  Percent Mortality: 100%
  Percent Growth Inhibition: 100%

## CC(C)NC(=O)OC(c1ccc(C(F)(F)F)cc1)C1CC[N+]([O-])(Cc2ccc(Oc3ccccn3)cc2)CC1 (stereo not shown) [Compound 785]
  Percent Mortality: 100%
  Percent Growth Inhibition: 100%

## O=C(Nc1cc(F)cc(F)c1)OC(C1=CCN(Cc2ccc(Oc3ncccn3)cc2)CC1)c1ccc(C(F)(F)F)cc1 (stereo not shown) [Compound 786, N-(3,5-difluorophenyl)({1-[(4-pyrimidin-2-yloxyphenyl)methyl](4-1,2,5,6-tetrahydropyridyl)}[4-(trifluoromethyl)phenyl]methoxy)carboxamide]
  Percent Mortality: 100%
  Percent Growth Inhibition: 100%

## O=C(Nc1cc(F)cc(F)c1)OC(C1=CC[N+]([O-])(Cc2ccc(Oc3ncccn3)cc2)CC1)c1ccc(C(F)(F)F)cc1 (stereo not shown) [Compound 787]
  Percent Mortality: 100%
  Percent Growth Inhibition: 100%

## CC(=O)Oc1ccc(CN2CCC(=C(c3ccc(C(F)(F)F)cc3)c3ccc(C(F)(F)F)cc3)CC2)cc1 [Compound 788]
  Percent Mortality: 33%
  Percent Growth Inhibition: 87%

## CNC(=O)Oc1ccc(CN2CCC(=C(c3ccc(Cl)cc3)c3ccc(Cl)cc3)CC2)cc1 [Compound 789]
  Percent Mortality: 100%
  Percent Growth Inhibition: 100%

## CNC(=O)Oc1ccc(CN2CCC(=C(c3ccc(C(F)(F)F)cc3)c3ccc(C(F)(F)F)cc3)CC2)cc1 [Compound 790]
  Percent Mortality: 100%
  Percent Growth Inhibition: 100%

## CNC(=O)Oc1ccc(CN2CCC(=C(c3ccc(OC(F)(F)F)cc3)c3ccc(OC(F)(F)F)cc3)CC2)cc1 [Compound 791]
  Percent Mortality: 100%
  Percent Growth Inhibition: 100%

## CC(C)NC(=O)Oc1ccc(CN2CCC(=C(c3ccc(C(F)(F)F)cc3)c3ccc(C(F)(F)F)cc3)CC2)cc1 [Compound 792]
  Percent Mortality: 100%
  Percent Growth Inhibition: 100%

## CC(C)OC(=O)Nc1ccc(CN2CCC(=C(c3ccccc3)c3ccccc3)CC2)cc1 [Compound 793]
  Percent Mortality: 0%
  Percent Growth Inhibition: 76%

## CC(C)OC(=O)Nc1ccc(CN2CCC(=C(c3ccc(F)cc3)c3ccc(F)cc3)CC2)cc1 [Compound 794]
  Percent Mortality: 83%
  Percent Growth Inhibition: 100%

## CC(C)OC(=O)Nc1ccc(CN2CCC(=C(c3ccc(Cl)c(Cl)c3)c3ccc(Cl)c(Cl)c3)CC2)cc1 [Compound 795]
  Percent Mortality: 50%
  Percent Growth Inhibition: 94%

## CC(C)OC(=O)Nc1ccc(CN2CCC(=C(c3ccc(Cl)c(F)c3)c3ccc(Cl)c(F)c3)CC2)cc1 [Compound 796]
  Percent Mortality: 100%
  Percent Growth Inhibition: 100%

## C=CCOC(=O)Nc1ccc(CN2CCC(=C(c3ccc(C(F)(F)F)cc3)c3ccc(C(F)(F)F)cc3)CC2)cc1 [Compound 797]
  Percent Mortality: 100%
  Percent Growth Inhibition: 100%

## CC=CCOC(=O)Nc1ccc(CN2CCC(=C(c3ccc(Cl)cc3)c3ccc(Cl)cc3)CC2)cc1 [Compound 798]
  Percent Mortality: 0%
  Percent Growth Inhibition: 59%

## CC=CCOC(=O)Nc1ccc(CN2CCC(=C(c3ccc(C(F)(F)F)cc3)c3ccc(C(F)(F)F)cc3)CC2)cc1 [Compound 799]
  Percent Mortality: 0%
  Percent Growth Inhibition: 83%

## C=C(C)COC(=O)Nc1ccc(CN2CCC(=C(c3ccc(Cl)cc3)c3ccc(Cl)cc3)CC2)cc1 [Compound 800]
  Percent Mortality: 0%
  Percent Growth Inhibition: 86%

## C#CCOC(=O)Nc1ccc(CN2CCC(=C(c3ccc(Cl)cc3)c3ccc(Cl)cc3)CC2)cc1 [Compound 801]
  Percent Mortality: 100%
  Percent Growth Inhibition: 100%

## C#CCOC(=O)Nc1ccc(CN2CCC(=C(c3ccc(C(F)(F)F)cc3)c3ccc(C(F)(F)F)cc3)CC2)cc1 [Compound 802]
  Percent Mortality: 100%
  Percent Growth Inhibition: 100%

## CS(=O)(=O)Oc1ccc(CN2CCC(=C(c3ccc(C(F)(F)F)cc3)c3ccc(C(F)(F)F)cc3)CC2)cc1 [Compound 803]
  Percent Mortality: 100%
  Percent Growth Inhibition: 100%

## CC(C)S(=O)(=O)Oc1ccc(CN2CCC(=C(c3ccc(C(F)(F)F)cc3)c3ccc(C(F)(F)F)cc3)CC2)cc1 [Compound 804]
  Percent Mortality: 100%
  Percent Growth Inhibition: 100%

## CS(=O)(=O)Nc1ccc(CN2CCC(=C(c3ccc(C(F)(F)F)cc3)c3ccc(C(F)(F)F)cc3)CC2)cc1 [Compound 805]
  Percent Mortality: 33%
  Percent Growth Inhibition: 100%

## Fc1ccccc1Oc1ccc(CN2CCC(=C(c3ccc(C(F)(F)F)cc3)c3ccc(C(F)(F)F)cc3)CC2)cc1 [Compound 806]
  Percent Mortality: 0%
  Percent Growth Inhibition: 100%

## FC(F)(F)c1ccc(C(=C2CCN(Cc3ccc(-c4ccccn4)cc3)CC2)c2ccc(C(F)(F)F)cc2)cc1 [Compound 807]
  Percent Mortality: 100%
  Percent Growth Inhibition: 100%

## c1ccc(C(=C2CCN(Cc3ccc(Oc4ccccn4)cc3)CC2)c2ccccc2)cc1 [Compound 808]
  Percent Mortality: 0%
  Percent Growth Inhibition: 64%

## Clc1ccc(C(=C2CCN(Cc3ccc(Oc4ccccn4)cc3)CC2)c2ccc(Cl)cc2)cc1 [Compound 809]
  Percent Mortality: 100%
  Percent Growth Inhibition: 100%

## Fc1ccc(C(=C2CCN(Cc3ccc(Oc4ccccn4)cc3)CC2)c2ccc(F)cc2)cc1 [Compound 810]
  Percent Mortality: 100%
  Percent Growth Inhibition: 100%

## FC(F)(F)c1ccc(C(=C2CCN(Cc3ccc(Nc4ccccn4)cc3)CC2)c2ccc(C(F)(F)F)cc2)cc1 [Compound 811]
  Percent Mortality: 100%
  Percent Growth Inhibition: 100%

## Clc1ccc(C(=C2CCN(Cc3ccc(Oc4ncccn4)cc3)CC2)c2ccc(Cl)cc2)cc1 [Compound 812]
  Percent Mortality: 100%
  Percent Growth Inhibition: 100%

## Clc1ccc(C(=C2CCN(Cc3ccc(Oc4ncccn4)cc3)CC2)c2ccc(Cl)c(Cl)c2)cc1Cl [Compound 813]
  Percent Mortality: 100%
  Percent Growth Inhibition: 100%

## FC(F)(F)c1ccc(C(=C2CCN(Cc3ccc(Oc4ncccn4)cc3)CC2)c2ccccc2Cl)cc1 [Compound 814]
  Percent Mortality: 100%
  Percent Growth Inhibition: 100%

## FC(F)(F)c1ccc(C(=C2CCN(Cc3ccc(Oc4ncccn4)cc3)CC2)c2cccc(Cl)c2)cc1 [Compound 815]
  Percent Mortality: 100%
  Percent Growth Inhibition: 100%

## FC(F)(F)c1ccc(C(=C2CCN(Cc3ccc(Oc4ncccn4)cc3)CC2)c2ccc(Cl)cc2)cc1 [Compound 816]
  Percent Mortality: 100%
  Percent Growth Inhibition: 100%

## Fc1cccc(C(=C2CCN(Cc3ccc(Oc4ncccn4)cc3)CC2)c2ccc(C(F)(F)F)cc2)c1 [Compound 817]
  Percent Mortality: 100%
  Percent Growth Inhibition: 100%

## FC(F)(F)c1ccc(C(=C2CCN(Cc3ccc(Oc4ncccn4)cc3)CC2)c2ccc(Cl)c(Cl)c2)cc1 [Compound 818]
  Percent Mortality: 100%
  Percent Growth Inhibition: 100%

## FC(F)(F)c1ccc(C(=C2CCN(Cc3ccc(Oc4ncccn4)cc3)CC2)c2cc(Cl)cc(Cl)c2)cc1 [Compound 819]
  Percent Mortality: 50%
  Percent Growth Inhibition: 100%

## Fc1cc(F)cc(C(=C2CCN(Cc3ccc(Oc4ncccn4)cc3)CC2)c2ccc(C(F)(F)F)cc2)c1 [Compound 820]
  Percent Mortality: 50%
  Percent Growth Inhibition: 92%

## Fc1cc(C(=C2CCN(Cc3ccc(Oc4ncccn4)cc3)CC2)c2ccc(C(F)(F)F)cc2)ccc1Cl [Compound 821]
  Percent Mortality: 100%
  Percent Growth Inhibition: 100%

## FC(F)(F)c1ccc(C(=C2CCN(Cc3ccc(Oc4ncccn4)cc3)CC2)c2cccc(C(F)(F)F)c2)cc1 [Compound 822]
  Percent Mortality: 100%
  Percent Growth Inhibition: 100%

## FC(F)(F)c1ccc(C(=C2CCN(Cc3ccc(OC4=NCCCN4)cc3)CC2)c2ccc(C(F)(F)F)cc2)cc1 [Compound 823]
  Percent Mortality: 67%
  Percent Growth Inhibition: 100%

## FC(F)(F)c1ccc(C(=C2CCN(Cc3ccc(Oc4ncccn4)cc3)CC2)c2ccc(C(F)(F)F)cc2)cc1 [Compound 824]
  Percent Mortality: 100%
  Percent Growth Inhibition: 100%

## FC(F)(F)c1ccc(C(=C2CCN(Cc3ccc(Oc4cnccn4)cc3)CC2)c2ccc(C(F)(F)F)cc2)cc1 [Compound 825]
  Percent Mortality: 83%
  Percent Growth Inhibition: 100%

## FC(F)(F)c1ccc(C(=C2CCN(Cc3ccc(Oc4ccc(Cl)nn4)cc3)CC2)c2ccc(C(F)(F)F)cc2)cc1 [Compound 826]
  Percent Mortality: 100%
  Percent Growth Inhibition: 100%

## CNC(=O)Oc1ccc(C[N+]2([O-])CCC(=C(c3ccc(Cl)cc3)c3ccc(Cl)cc3)CC2)cc1 (stereo not shown) [Compound 827]
  Percent Mortality: 100%
  Percent Growth Inhibition: 100%
